Experimental data published in article PMC6434189, “Peperomin E and its orally bioavailable analog induce oxidative stress-mediated apoptosis of acute myeloid leukemia progenitor cells by targeting thioredoxin reductase” (Redox Biology, 2019).
Read-outs that look alike come from different tables or passages of the source.

Assays:
[1] = Pharmacokinetic study of DMAPE in rats; format: in vivo, Sprague–Dawley rats; conditions: for MRT last: read-out: MRT 0-t; for MRT inf: read-out: MRT 0-∞
Text: The UFLC-MS/MS system consisted of a Prominence™ UFLC system (Shimadzu, Kyoto, Japan) coupled with a QTRAP™ 5500 MS/MS system (Applied Biosystems/MDS SCIEX, Foster City, CA, USA) and controlled by the Analyst 1.5.2 software. MS‐grade methanol and acetonitrile were purchased from Merck (Darmstadt, Germany). Ultra‐pure water was generated using a MilliQ™ direct water purification system (Merck–Millipore, Billerica, MA, USA). The mass spectra and chromatographic conditions, method validations, standard and sample preparation for simultaneous determination of DMAPE and its parent drug PepE in rat plasma are provided in the Additional method in Supplementary Materials.
Male Sprague–Dawley rats weighing 200 ± 20 g were supplied by the Qinglongshan Experimental Animal Breeding Company (Nanjing, China). The experiment protocol was approved by the Animal Ethics Committee of Nanjing University of Chinese Medicine (Nanjing, China). The rats were housed under controlled environmental conditions (temperature 25 ± 2 °C, relative humidity 50 ± 10%) with free access to standard laboratory food and water. Before drug administration, the rats were randomly divided into two groups (eight rats per group) and fasted for 12 h with access to water. DMAPE phosphate salt aqueous solution was i. g. (50 mg/kg) or i. v. (50 mg/kg) administrated. Blood samples were collected from the tail vein into heparinized Eppendorf tubes using lithium heparin‐containing microvettes. The plasma was obtained by centrifugation of the blood at 5000 rpm for 10 min and then frozen at −20 °C until analysis. Pharmacokinetic parameters were calculated using the DAS 2.1.1 software (Pharmacological Society of China, China) using non-compartmental analysis.

[2] = system: KG-1a CD34+ cells; assay: Annexin V-FITC/PI apoptosis assay; format: cell-based, human; conditions: 6 μM; for cell apoptosis (early + late): 12 h; for apoptotic population (early + late): 24 h
Text: The cells were harvested and washed twice with PBS. The apoptotic cells, necrotic cells, and live cells were identified by PI and Annexin V-FITC staining assay following the manufacturer's instructions. Data were obtained and analyzed using a BD Accuri™ C6 flow cytometer (BD Biosciences, San Jose, CA, USA) with CellQuest software (BD Biosciences).

[3] = molecular target: T1, GPX1 (Homo sapiens, UniProt P07203); assay: BLI binding assay, GPX1
T1 construct: purchased Abcam
T1 sequence (P07203 1-203): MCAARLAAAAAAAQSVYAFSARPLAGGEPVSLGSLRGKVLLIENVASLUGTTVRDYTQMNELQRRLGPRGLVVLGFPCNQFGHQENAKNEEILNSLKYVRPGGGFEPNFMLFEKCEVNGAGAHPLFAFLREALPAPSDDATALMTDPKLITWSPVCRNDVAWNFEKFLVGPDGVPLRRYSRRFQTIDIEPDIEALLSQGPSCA
Procedure: The binding kinetics of PepE or PepA to purified recombinant proteins were determined using BLI on an Octet RED 96 system (ForteBio, Shanghai, China) following the manufacturer's protocol. All interaction analyses were performed at 25 °C in PBS with 0.2% DMSO. Purified recombinant proteins (0.9 μM, the TrxR1 full length and TrxR1 protein fragment were pre-reduced by 400 μM of NADPH before test) were pre-labeled with biotin using […] (Abcam) following the manufacturer's instruction. Loading of the Dip and Read Super Streptavidin (SSA) Biosensors (ForteBio) were conducted by exposing biotinylated proteins to biosensor tips for 2 h. The 96-well microplates used in the Octet were filled with 200 μL sample or buffer per well and agitated at 1000 rpm. The loaded biosensors were washed in buffer for 600 s and transferred to wells containing PepE at concentrations of 0.625, 1.25, 2.5, 5, and 10 μM or PepA at concentrations of 1.25, 2.5, 5, 10 and 20 μM, respectively, in the buffer. […] Reference measurements were conducted using the buffer instead of PepE (or PepA). A parallel set of SA unloaded biosensors was prepared to act as a control. […] Kinetic parameters (Kon and Kdis) and affinity (KD) were determined from a global fit to a 1:1 binding model of the data between proteins and PepE using Octet software (ForteBio).

[4] = system: TrxR1 KD cells (KG-1a CD34+); assay: CCK-8 viability in TrxR1 knockdown KG-1a CD34+ cells; format: cell-based, human; conditions: 48 h
Procedure: Unless otherwise mentioned, 2 × 10^4 cells were seeded at 96-well plates (Corning, New York, USA) in the IMDM-based serum-free media for 1 h. Then, the cells were incubated with different concentrations of PepE and DMAPE at 37 °C in a 5% CO2 incubator for 48 h. At the end of the treatment, 10 μL CCK-8 solution was added to each well and incubated for an additional 2 h at 37 °C, and the absorbance at 450 nm was measured with a microplate reader (Thermo Scientific, Multiskan GO, Finland). Inhibition ratio (%) was calculated as [(absorbance of control − absorbance of the test sample)/absorbance of control] x 100%.
For TrxR1 knockdown experiment, KG-1a CD34^+ cells were seeded in a six-well plate at 2.5 × 10^5/well in antibiotic-free IMDM medium for 24 h; then cells were washed once with 2 ml of shRNA transfection medium (Santa Cruz Biotech, sc-108062) and transfected with either TrxR1 shRNA plasmid (Santa Cruz Biotech, sc-36750-SH) or Control shRNA plasmid (negative control, Santa Cruz Biotech, sc-108060) according to the manufacturer's instructions. Briefly, for each transfection, 0.1 ml of shRNA (TrxR1 or control) duplex solution (containing 1 μg of shRNA plasmids) and 0.1 ml of transfection reagent (Santa Cruz Biotech, sc-108061) were gently mixed and incubated at room temperature for 30 min. […] The knockdown efficiencies were evaluated by western blot and RT-qPCR analyses.

[5] = male, Sprague-Dawley, po, rat plasma, DMAPE 50 mg/kg intragastric
[6] = male, Sprague-Dawley, rat, plasma, po, 50 mg/kg, rat plasma, DMAPE 50 mg/kg intragastric
[7] = male, Sprague-Dawley, rat plasma, DMAPE 50 mg/kg intravenous

AUC(0-inf) [1, 5]	AUC(0-t) [1, 5]	Cmax [1, 5]	half-life [1, 5]	MRT last [1, 5]	MRT inf [1, 5]	Tmax [1, 6]	AUC(0-inf) [1, 7]	AUC(0-t) [1, 7]	Cmax [1, 7]	clearance [1, 7]	half-life [1, 7]	MRT last [1, 7]	MRT inf [1, 7]	Compound	cell apoptosis (early + late) [2]	apoptotic population (early + late) [2]	potency toward TrxR1 KD cells compared to CTRL KD cells [4]	also measured
10700 ± 2930 ng·h/mL	10600 ± 2930 ng·h/mL	2300 ± 270 ng/mL	7.02 ± 1.3 h	7.32 ± 0.82 h	7.75 ± 0.74 h	≤ 0.85 h	11400 ± 3520 ng·h/mL	11300 ± 3520 ng·h/mL	8630 ± 2040 ng/mL	77.5 mL/min/kg	8.89 ± 4.8 h	3.91 ± 1.4 h	4.64 ± 1.88 h	C=C1C(=O)OC[C@H]1C(c1cc(OC)c2c(c1)OCO2)c1cc(OC)c2c(c1)OCO2 [PepE, Peperomin E]	~65%	~85%	elevated potency	Tmax ([1]; male, Sprague-Dawley, rat, plasma, iv, 50 mg/kg, rat plasma, DMAPE 50 mg/kg intravenous): 0.21 ± 0.17 h; Kd [3]: 534 µM; kon [3]: 6400 M⁻¹ s⁻¹
25400 ± 8950 ng·h/mL	25200 ± 8960 ng·h/mL	5760 ± 2510 ng/mL	4.26 ± 1.63 h	4.9 ± 0.42 h	5.29 ± 0.32 h	≤ 0.85 h	30000 ± 7010 ng·h/mL	29900 ± 7070 ng·h/mL	21700 ± 3590 ng/mL	29 mL/min/kg	4.33 ± 1.77 h	2.61 ± 0.86 h	2.73 ± 0.85 h	COc1cc(C(c2cc(OC)c3c(c2)OCO3)[C@@H]2COC(=O)[C@H]2CN(C)CCO)cc2c1OCO2 [DMAPE, (2S,3S)-6-Methyl (hydroxyethyl) amino-2,6-dihydropeperomin E]	~55%	~90%	elevated potency	bioavailability ([1]; male, Sprague-Dawley, rat, plasma, oral, 50 mg/kg, rat, DMAPE 50 mg/kg intragastric vs intravenous, read-out: Bioavailability, F): 85%; CL ([1]; rat plasma, DMAPE 50 mg/kg intragastric): 35.7 ± 10.2 mL/min/kg
